{
  "source": "patent US20200268864A1",
  "about": "“CANCER VACCINE COMPOSITIONS AND METHODS FOR USING SAME TO TREAT CANCER” (Dana-Farber Cancer Institute, Inc., priority 2017, published 2020)",
  "key": {"PBM tumor-bearing mice": {"tested_on": "PBM tumor-bearing mice", "experiment": "Flow cytometry of peripheral blood and splenic immune cells", "conditions": "mouse, in vivo", "procedure": "Tumors were first mechanically disrupted by chopping, then chemically digested in collagenase buffer (8 mL DMEM, 0.1 mL 1M HEPES, 0.5 mL FBS, 0.2 mL Pen/Strep, 1 m, 10× collagenase/hyaluronidase (Stemcell Technologies), 0.2 mL of 1 mg/mL DNase I (Stemcell Technologies) at 37° C. for 45 min. Single-cell suspensions of spleen and lymph nodes were obtained by mashed through a 70 um strainer using the plunger of a 3 mL or 5 mL syringe. Single cells suspensions were treated with red blood lysis buffer (4 mL NH4Cl+1 mL PBS with 2% calf serum) and washed with FACS buffer. Single cells suspensions were incubated with LIVE/DEAD Fixable Aqua Dead Cell Stain (Life Technologies, Cat # L34965) for 30 min and then blocked with anti-CD16/32 (BioLegend, clone 93) for 20 min on ice. Samples were then incubated with appropriate antibodies for 30 min. on ice. The Foxp3 staining buffer set (eBioscience, Cat #00-5523-00) was applied for intracellular markers staining. For the intracellular cytokine analysis, cells were stimulated with Leukocyte Activation Cocktail (BD Biosciences, Cat #550583) at 37° C. for 5 hours prior to FACS staining. The following antibodies were used in the experiments and were purchased from BioLegend unless otherwise indicated: CD45 (clone 30-F11), TCRβ (clone H57-597), CD4 (clone RM4-5), CD8 (clone 53-6.7), CD44 (clone IM7), CD62L (MEL-14), CD25 (PC61), IFNγ (clone XMG1.2), TNFα(clone MP6-XT22), PD-1 (clone 29F.1A12), Tim-3 (clone RMT3-23), LAG-3 (clone C9B7W), CD11b (clone M1/70), CD11c (clone […]), F4/80 (clone BM8), Gr-1 (clone RB6-BC5), Ly-6C (clone HK1.4), Ly-6G (clone 1A8), MHCII (clone M5/114.15.2), CD80 (clone 16-10A1), CD86 (clone GL-1), MHC1 (clone KH114). FoxP3 (clone FJK-16 s; eBioscience), Phospho-IRF-3 (Ser396) (clone D6O1M, Cell signaling technology), Phospho-TBK1/NAK (Ser172) (clone D52C2, Cell signaling technology), and LIVE/DEAD® Fixable Aqua Dead Cell Stain Kit (Life Technologies Cat L34965). Flow cytometry was performed on an LSR II (BD Biosciences) or LSRFortessa™ HTS (BD Biosciences) at the DFCI flow cytometry core facility, and all the data were analyzed using FlowJo software."}, "[1]": {"tested_on": "STING pathway in BMDCs co-cultured with PPM cells", "experiment": "Co-culture of BMDCs with olaparib-treated PPM tumor cells", "type": "cell-based, mouse", "procedure": "Blood was obtained by retro-orbital sampling at intermediate time points or experimental end points. Blood cells and plasma/sera were separated by centrifugation at 1,500×g for 5 min. at 4° C. Plasmaisera were sent out to Eve Technologies for cytokine array analysis (Chemokine Array 31-Plex and Mouse Procarta IFN 2-plex Featured Assay). Plasma/sera were applied to ELISA according to manufacturer's instructions. For in vitro experiments, cell culture supernatants were obtained by centrifugation at 1,500×g for 5 min. at 4° C. to remove all debris and cells, and were then subjected to ELISA analysis. IFN-β was detected using the LEGEND MAX™ Mouse IFN-β ELISA Kit (BioLegend).\nBone marrow cells were isolated from FVB/NJ mice and cultured in RPMI-1640 containing 10% FBS and 20 ng/ml GM-CSF. BMDCs (bone marrow derived dendritic cells) were harvested for in vitro co-culture assay on day 7 to day 10. About 3×10^5 PBM or PPM tumor cells were cultured in a 6-well plate for 24 hr. and then treated with DMSO or olaparib. After 24 hr incubation with DMSO, olaparib, or olaparib in combination with other drugs (cell cycle inhibitor or apoptosis inhibitor), drugs were removed and tumor cells were washed twice with PBS. BMDCs were added and co-cultured with PBM or PPM cells at a ratio of 1:1 in 1.5 ml culture media in the presence of GM-CSF (20 ng/ml) and lipofectamine (2 μl) for 24 hr. […]"}, "PBM tumor tissues": {"tested_on": "PBM tumor tissues", "experiment": "Gene Set Enrichment Analysis of PBM tumor tissues", "type": "in vivo, mouse", "conditions": "18 days of treatment, vs vehicle; panel of 4604 genes", "procedure": "RNA was isolated from tumor samples as described above, sequenced on the ion Torrent platform per manufacturer's instructions using a custom AmpliSeq panel targeting 4604 murine genes relevant to our studies, and raw data was processed using the Torrent Suite and AmpliSeqRNA plugin to give read counts per gene. Differential gene expression analyses were carried out using DESeq2 with default parameters to obtain log 2 fold change (MAP) and adjusted p-values (Benjamini-Hochberg procedure) (Love et al. (2014) Genorme Biol. 15:550). Genes were ranked by log 2 fold change (MAP), and GSEA were carried out using the GSEAPreranked tool (Mootha et al. (2003) Nat. Genet. 34:267-273; Subramanian et al. (2005) Proc. Natl. Acad. Sci. USA 102:15545-15550). PCA were carried out using DESeq2."}},
  "data": [
    {"smiles": "O=C(c1cc(Cc2n[nH]c(=O)c3ccccc23)ccc1F)N1CCN(C(=O)C2CC2)CC1", "note": "[olaparib, Olaparib]", "values": [
      {"measurement": "IFN gamma and TNF alpha production by peripheral blood CD8+ T cells", "setting": "PBM tumor-bearing mice", "result": "enhanced"},
      {"measurement": "expression of PD-1, Tim3, and Lag3 co-inhibitory receptors on splenic CD8+ T cells", "setting": "PBM tumor-bearing mice", "result": "reduced"},
      {"measurement": "gMDSC and mMDSC in the peripheral blood", "setting": "PBM tumor-bearing mice", "result": "decreased"},
      {"measurement": "number of CD8+ T cells in the spleens", "setting": "PBM tumor-bearing mice", "result": "significantly increased"},
      {"measurement": "number of MDSCs in the spleens", "setting": "PBM tumor-bearing mice", "result": "significantly reduced"},
      {"measurement": "STING-dependent activation of BMDCs (IFNβ and CXCL10 expression)", "setting": "[1]", "result": "not observed"},
      {"measurement": "GSEA: expression of immune-related gene sets", "setting": "PBM tumor tissues", "result": "markedly upregulated expression of genes associated with immune response, T-cell activation and interferon-γ (IFNγ) response"}
    ]}
  ]
}
